{
  "source": "patent US20150218638A1",
  "about": "“METHODS FOR ASSESSMENT OF PEPTIDE-SPECIFIC IMMUNITY” (priority 2012, published 2015)",
  "system": "heparinized whole blood",
  "assay": "Ex vivo induction of immune-function-related mRNA in heparinized whole blood, real time PCR",
  "type": "cell-based",
  "conditions": "37° C., 4 hours, vs PBS",
  "data": [
    {"substance": "leucoagglutinin [PHA-L]", "values": [
      {"measurement": "CCL4 mRNA induction", "value": "induced"},
      {"measurement": "CTLA4 mRNA induction", "value": "induced"},
      {"measurement": "CXCL3 mRNA induction", "value": "induced"},
      {"measurement": "CXCL10 mRNA induction", "value": "induced"},
      {"measurement": "GMCSF mRNA induction", "value": "induced"},
      {"measurement": "IFNG mRNA induction", "value": "induced"},
      {"measurement": "IL4 mRNA induction", "value": "induced"},
      {"measurement": "IL10 mRNA induction", "value": "induced"},
      {"measurement": "TNFSF2 mRNA induction", "value": "induced"},
      {"measurement": "beta actin (ACTB) mRNA induction (control housekeeping gene)", "value": "not induced"}
    ]}
  ]
}
